Measurements reported in patent US20040096356A1, “Assay device for determining analytes in a liquid dairy product” (priority 1997, published 2004).

How the values were obtained:
Format in all cases: binding
receptor BlaR-CTD [1] = target: T1, receptor BlaR-CTD (Bacillus licheniformis, UniProt P12287); test: 3-minute rapid test: strip test for β-lactam antibiotics in milk using BlaR-CTD; conditions: in 3 minutes; positive when first band is less intense than second band
T1 construct: the receptor BlaR-CTD is the carboxy-terminal region of BlaR
T1 sequence (P12287 340-601): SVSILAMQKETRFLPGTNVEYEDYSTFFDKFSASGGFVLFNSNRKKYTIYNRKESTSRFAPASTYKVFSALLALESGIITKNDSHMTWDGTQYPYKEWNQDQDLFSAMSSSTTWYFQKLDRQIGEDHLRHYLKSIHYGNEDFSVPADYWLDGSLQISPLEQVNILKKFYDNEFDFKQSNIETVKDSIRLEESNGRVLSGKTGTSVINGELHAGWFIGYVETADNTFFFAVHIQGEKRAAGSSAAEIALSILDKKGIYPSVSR
Excerpt: (§1) According to a preferred embodiment of the invention an identifier is used which comprises a receptor sensitive to antibiotics having a β-lactam ring, which receptor is obtained from Bacillus licheniformis, such as the receptor BlaR or the receptor BlaR-CTD. The isolation and the peptide sequence of the protein BlaR are described in Y. Zhu et al., J. Bacteriol., 1137-1141 (1990); the receptor BlaR-CTD is the carboxy-terminal region of BlaR, whose isolation and peptide sequence are described in B. Joris et al., FEMS Microbiology Letters, 107-114 (1990).
(§2) This example illustrates the detection in milk of antibiotics having a β-lactam ring which are monitored by the health authorities. The test described in this example uses the receptor BlaR-CTD coupled with gold beads, which serve as labelling agents, and uses a support which is in the form of an assay device comprising a solid support on which membranes are fixed.
(§3) 3.79 ml of a solution of recognition agent BlaR-CTD having a concentration of 6.6 mg/ml are taken up in a sodium phosphate buffer, 20 mM pH 7. To this solution of BlaR-CTD are then added 41.71 ml of bicarbonate buffer (0.1 M sodium bicarbonate, pH 9) and 2 ml of a solution of N-hydroxysuccinimide 6-(biotinamido)caproic ester containing 2.23 mg/ml likewise of bicarbonate buffer. This solution is stirred gently on a LABINCO stirrer for tubes on a rotary axis (available from VEL, Belgium) at a rate of 2 revolutions/minute for 2 hours at ambient temperature and away from light. 2.5 ml of a solution of Tris buffer, 1 M pH 8 are incubated with the reaction mixture under the same conditions for 30 minutes. The solution thus obtained is dialysed against HNM buffer (Hepes 100 mM, pH 8, NaCl 100 mM, MgCl2 50 mM) for 24 hours. In this way a biotinylated BlaR-CTD solution is obtained which is diluted in HNM-BSA buffer (Hepes 500 mM, pH 8, NaCl 500 mM, MgCl2 250 mM, BSA 10 mg/ml) to a concentration of 250 μg of biotinylated BlaR-CTD per ml of buffer. This solution is stored at −20° C.
(§4) The biotinylated BlaR-CTD solution prepared in Example 3.1.1 is diluted 114.7 times with the HNM-BSA buffer (Hepes 500 mM, pH 8, NaCl 500 mM, MgCl2 250 mM, BSA 10 mg/ml). At room temperature, 22.5 parts by volume of this dilute biotinylated BlaR-CTD solution, 7.5 parts by volume of HNM-BSA buffer, 9.27 parts by volume of the gold particle suspension used to label the biotinylated BlaR-CTD and 6 parts by volume of reference gold particle suspension are mixed (see Example 3.1.4 below).
(§5) The first capture substance makes it possible to fix the BlaR-CTD coupled with the gold beads present in excess relative to the quantity of antibiotic present in the sample.
(§6) Assay devices containing membranes (2), (3) and (4) are used, assembled in accordance with the procedure described in Example 1.1. The membrane (3) of these devices carries on the proximal side the capture substance described in Example 32.1. and on the distal side the capture substance described in Example 3.2.2. The capture substances were deposited in accordance with the procedure described in Example 1.2.
7 samples of fresh milk are prepared, containing 0; 1; 2; 3; 4; 5 and 6 ppb, respectively, of penicillin G. Each of these solutions is then analysed as follows.
An aliquot is taken of 200 μl of milk sample and 45.27 μl of solution prepared in Example 3.1.3, and is placed in a glass flask. This mixture is incubated at 47° C. for 1 minute. An assay device is taken and is placed vertically in the glass flask such that the first end of the assay device is in contact with the mixture and such that the second end rests on the wall of the glass flask. The mixture is allowed to migrate over the assay device while the assembly is incubated at 47° C. for 2 minutes.
(§7) An intensity value ranging from 0 to 10 is awarded to the bands detected, the value 10 being given to the most intense band and the value 0 being given to the least intense band. On this scale, a value of 6 is awarded to the reference band. […]

receptor BlaR-CTD [2] = target: T1, receptor BlaR-CTD; test: Five minutes test: strip test for β-lactam antibiotics in milk using BlaR-CTD; conditions: for Intensity 1st band: scale 0 to 10, reference band 6, 47° C., 3 min incubation + 2 min migration; for lowest concentration detected in a milk sample: in 5 minutes, positive when first band is less intense than second band
Excerpt: as §1, §2, §3, §4, §5, §6
Six samples of fresh milk are prepared, containing 0; 2; 4; 6; 8 and 10 ppb, repsectively, of cloxacillin. Each of these solutions is then analysed as follows.
An aliquot is taken of 200 μl of milk sample and 45.27 μl of solution prepared in Example 3.1.3, and is placed in a glass flask. This mixture is incubated at 47° C. for 3 minutes. An assay device is taken and is placed vertically in the glass flask such that the first end of the assay device is in contact with the mixture in such a way that the second end rests on the wall of the glass flask. The mixture is allowed to migrate over the assay device while the assembly is incubated at 47° C. for 2 minutes.
as §7

receptor BlaR-CTD [3] = target: T1, receptor BlaR-CTD; test: 9-minute test: strip test for β-lactam antibiotics in milk using BlaR-CTD; conditions: for lowest concentration detected in a milk sample: in 9 minutes, positive when first band is less intense than second band; for Intensity 1st band: scale 0 to 10, reference band 6, 47° C., 7 min incubation + 2 min migration
Excerpt: as §1, §2, §3, §4, §5, §6
Six samples of fresh milk are prepared, containing 0; 4; 6; 8; 10 and 12 ppb, respectively, of cephapirin. Each of these solutions is then analysed as follows.
An aliquot is taken of 200 μl of milk sample and 45.27 μl of solution prepared in Example 3.1.3, and is placed in a glass flask. This mixture is incubated at 47° C. for 7 minutes. An assay device is taken and is placed vertically in the glass flask such that the first end of the assay device is in contact with the mixture in such a way that the second end rests on the wall of the glass flask. The mixture is allowed to migrate over the assay device while the assembly is incubated at 47° C. for 2 minutes.
as §7

receptor BlaR-CTD [4] = target: T1, receptor BlaR-CTD; test: 20-minute test: strip test for β-lactam antibiotics in milk using BlaR-CTD; conditions: for Intensity 1st band: scale 0 to 10, reference band 6, 47° C., 18 min incubation + 2 min migration
Excerpt: as §1, §2, §3, §4, §5, §6
Six samples of fresh milk are prepared, containing 0; 20; 30; 40; 50 and 60 ppb, respectively, of ceftiofur. Each of these solutions is then analysed as follows.
An aliquot is taken of 200 μl of milk sample and 45.27 μl of solution prepared in Example 3.1.3, and is placed in a glass flask. This mixture is incubated at 47° C. for 18 minutes. An assay device is taken and is placed vertically in the glass flask such that the first end of the assay device is in contact with the mixture in such a way that the second end rests on the wall of the glass flask. The mixture is allowed to migrate over the assay device while the assembly is incubated at 47° C. for 2 minutes.
An intensity value ranging from 0 to 10 is awarded to the bands detected, the value 10 being given to the most intense band and the value 0 being given to the least intense band. On this scale, a value 6 is awarded to the reference band. […]

| SMILES | lowest concentration detected in a milk sample (receptor BlaR-CTD [1]) | lowest concentration detected in a milk sample (receptor BlaR-CTD [2]) | lowest concentration detected in a milk sample (receptor BlaR-CTD [3]) | other results |
| --- | --- | --- | --- | --- |
| Cc1onc(-c2ccccc2Cl)c1C(=O)N[C@@H]1C(=O)N2[C@@H]1SC(C)(C)[C@@H]2C(=O)O [Cloxacillin, cloxacillin] | less than 10 ppb | 4 ppb | 4 ppb | Intensity 1st band (receptor BlaR-CTD [2]; 2 ppb cloxacillin in fresh milk): 6; Intensity 1st band (receptor BlaR-CTD [2]; 4 ppb cloxacillin in fresh milk): 5; Intensity 1st band (receptor BlaR-CTD [2]; 6 ppb cloxacillin in fresh milk): 3; Intensity 1st band (receptor BlaR-CTD [2]; 8 ppb cloxacillin in fresh milk): 3; Intensity 1st band (receptor BlaR-CTD [2]; 10 ppb cloxacillin in fresh milk): 3 |
| Cc1onc(-c2c(Cl)cccc2Cl)c1C(=O)N[C@@H]1C(=O)N2[C@@H]1SC(C)(C)[C@@H]2C(=O)O [dicloxacillin] |  | 8 ppb | 8 ppb |  |
| CO/N=C(\C(=O)N[C@@H]1C(=O)N2C(C(=O)O)=C(CSC(=O)c3ccco3)CS[C@H]12)c1csc(N)n1 [Ceftiofur, ceftiofur] |  | 100 ppb | 80 ppb | Intensity 1st band (receptor BlaR-CTD [4]; 20 ppb ceftiofur in fresh milk): 6; Intensity 1st band (receptor BlaR-CTD [4]; 30 ppb ceftiofur in fresh milk): 5; Intensity 1st band (receptor BlaR-CTD [4]; 40 ppb ceftiofur in fresh milk): 4; Intensity 1st band (receptor BlaR-CTD [4]; 50 ppb ceftiofur in fresh milk): 3; Intensity 1st band (receptor BlaR-CTD [4]; 60 ppb ceftiofur in fresh milk): 3; lowest concentration detected in a milk sample (receptor BlaR-CTD [4]; in 20 minutes, positive when first band is less intense than second band): 30 ppb |
| CC(=O)OCC1=C(C(=O)O)N2C(=O)[C@@H](NC(=O)CSc3ccncc3)[C@H]2SC1 [Cephapirin, cephapirin] | 20 ppb | 16 ppb | 6 ppb | Intensity 1st band (receptor BlaR-CTD [3]; 4 ppb cephapirin in fresh milk): 6; Intensity 1st band (receptor BlaR-CTD [3]; 6 ppb cephapirin in fresh milk): 5; Intensity 1st band (receptor BlaR-CTD [3]; 8 ppb cephapirin in fresh milk): 4; Intensity 1st band (receptor BlaR-CTD [3]; 10 ppb cephapirin in fresh milk): 3; Intensity 1st band (receptor BlaR-CTD [3]; 12 ppb cephapirin in fresh milk): 3 |
| CO/N=C(\C(=O)N[C@@H]1C(=O)N2C(C(=O)[O-])=C(C[n+]3cccc4c3CCCC4)CS[C@H]12)c1csc(N)n1 [cefquinone] |  | less than 20 ppb | less than 20 ppb |  |
| Cc1nnc(SCC2=C(C(=O)O)N3C(=O)[C@@H](NC(=O)Cn4cnnn4)[C@H]3SC2)s1 [cefazolin] |  | 60 ppb | 45 ppb |  |
| CCOc1ccc2ccccc2c1C(=O)N[C@@H]1C(=O)N2[C@@H]1SC(C)(C)[C@@H]2C(=O)O [nafcillin] |  | 20 ppb | 20 ppb |  |
| CC1(C)S[C@@H]2[C@H](NC(=O)[C@H](N)c3ccc(O)cc3)C(=O)N2[C@H]1C(=O)O [amoxicillin] | 5 ppb | 4 ppb | 4 ppb |  |
| Cc1onc(-c2ccccc2)c1C(=O)N[C@@H]1C(=O)N2[C@@H]1SC(C)(C)[C@@H]2C(=O)O [oxacillin] |  | 8 ppb | 8 ppb |  |
| CC1(C)S[C@@H]2[C@H](NC(=O)[C@H](N)c3ccccc3)C(=O)N2[C@H]1C(=O)O [ampicillin] | 5 ppb | 4 ppb | 4 ppb |  |
